Test results as given in ChEMBL document CHEMBL4342480, “Design of Dual Inhibitors of Soluble Epoxide Hydrolase and LTA4 Hydrolase” (ACS Med Chem Lett, 2020).

What was measured:
[1] = target: T1, Bifunctional epoxide hydrolase 2 (Homo sapiens, UniProt P34913); assay: Inhibition of full length human soluble epoxide hydrolase (1 to 555 residues) expressed in Escherichia coli BL21(DE3) using non-fluorescent PHOME as substrate preincubated for 30 mins followed by substrate addition and measured for 30 mins by fluorescence based assay
T1 sequence (P34913 whole entry): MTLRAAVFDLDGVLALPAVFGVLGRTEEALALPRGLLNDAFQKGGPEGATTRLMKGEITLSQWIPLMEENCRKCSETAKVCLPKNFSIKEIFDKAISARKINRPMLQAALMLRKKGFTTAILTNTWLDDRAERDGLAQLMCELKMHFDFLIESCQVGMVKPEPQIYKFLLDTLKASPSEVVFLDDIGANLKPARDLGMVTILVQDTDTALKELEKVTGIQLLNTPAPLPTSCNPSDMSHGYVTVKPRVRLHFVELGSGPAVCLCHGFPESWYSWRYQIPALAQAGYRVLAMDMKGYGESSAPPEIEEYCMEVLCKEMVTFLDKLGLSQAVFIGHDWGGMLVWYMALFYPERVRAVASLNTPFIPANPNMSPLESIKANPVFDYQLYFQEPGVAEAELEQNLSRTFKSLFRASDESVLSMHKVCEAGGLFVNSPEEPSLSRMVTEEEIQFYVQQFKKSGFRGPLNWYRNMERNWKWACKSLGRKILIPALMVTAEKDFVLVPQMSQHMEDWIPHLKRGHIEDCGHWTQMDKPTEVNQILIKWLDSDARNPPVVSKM

Macrophage [2] = assay: Antiinflammatory activity in Escherichia coli O6:K2:H1-induced human M1 macrophage assessed as change in 15-HETE level at 1 uM preincubated for 10 mins followed by Escherichia coli O6:K2:H1-stimulation and measured after 180 mins by UPLC-MS/MS analysis relative to control; assay type: functional
Macrophage [3] = assay: Antiinflammatory activity in Escherichia coli O6:K2:H1-induced human M1 macrophage assessed as change in 14-HDHA level at 1 uM preincubated for 10 mins followed by Escherichia coli O6:K2:H1-stimulation and measured after 180 mins by UPLC-MS/MS analysis relative to control; assay type: functional
Macrophage [4] = assay: Antiinflammatory activity in Escherichia coli O6:K2:H1-induced human M1 macrophage assessed as change in 5.15-dlHETE level at 1 uM preincubated for 10 mins followed by Escherichia coli O6:K2:H1-stimulation and measured after 180 mins by UPLC-MS/MS analysis relative to control; assay type: functional
Macrophage [5] = assay: Antiinflammatory activity in Escherichia coli O6:K2:H1-induced human M1 macrophage assessed as change in […] level at 1 uM preincubated for 10 mins followed by Escherichia coli O6:K2:H1-stimulation and measured after 180 mins by UPLC-MS/MS analysis relative to control; assay type: functional
Macrophage [6] = assay: Antiinflammatory activity in Escherichia coli O6:K2:H1-induced human M1 macrophage assessed as change in total LTB4 level at 1 uM preincubated for 10 mins followed by Escherichia coli O6:K2:H1-stimulation and measured after 180 mins by UPLC-MS/MS analysis relative to control; assay type: functional
Macrophage [7] = assay: Antiinflammatory activity in Escherichia coli O6:K2:H1-induced human M1 macrophage assessed as change in 15-HETE level at 10 uM preincubated for 10 mins followed by Escherichia coli O6:K2:H1-stimulation and measured after 180 mins by UPLC-MS/MS analysis relative to control; assay type: functional
Macrophage [8] = assay: Antiinflammatory activity in Escherichia coli O6:K2:H1-induced human M1 macrophage assessed as change in 14-HDHA level at 10 uM preincubated for 10 mins followed by Escherichia coli O6:K2:H1-stimulation and measured after 180 mins by UPLC-MS/MS analysis relative to control; assay type: functional
Macrophage [9] = assay: Antiinflammatory activity in Escherichia coli O6:K2:H1-induced human M1 macrophage assessed as change in […] level at 10 uM preincubated for 10 mins followed by Escherichia coli O6:K2:H1-stimulation and measured after 180 mins by UPLC-MS/MS analysis relative to control; assay type: functional
Macrophage [10] = assay: Antiinflammatory activity in Escherichia coli O6:K2:H1-induced human M1 macrophage assessed as change in total LTB4 level at 10 uM preincubated for 10 mins followed by Escherichia coli O6:K2:H1-stimulation and measured after 180 mins by UPLC-MS/MS analysis relative to control; assay type: functional
Macrophage [11] = assay: Antiinflammatory activity in Escherichia coli O6:K2:H1-induced human M1 macrophage assessed as change in LTB4 level at 10 uM preincubated for 10 mins followed by Escherichia coli O6:K2:H1-stimulation and measured after 180 mins by UPLC-MS/MS analysis relative to control; assay type: functional
Macrophage [12] = assay: Antiinflammatory activity in Escherichia coli O6:K2:H1-induced human M2 macrophage assessed as change in 15-HEPE level at 1 uM preincubated for 10 mins followed by Escherichia coli O6:K2:H1-stimulation and measured after 180 mins by UPLC-MS/MS analysis relative to control; assay type: functional
Macrophage [13] = assay: Antiinflammatory activity in Escherichia coli O6:K2:H1-induced human M2 macrophage assessed as change in PGD2 level at 1 uM preincubated for 10 mins followed by Escherichia coli O6:K2:H1-stimulation and measured after 180 mins by UPLC-MS/MS analysis relative to control; assay type: functional
Macrophage [14] = assay: Antiinflammatory activity in Escherichia coli O6:K2:H1-induced human M2 macrophage assessed as change in total LTB4 level at 1 uM preincubated for 10 mins followed by Escherichia coli O6:K2:H1-stimulation and measured after 180 mins by UPLC-MS/MS analysis relative to control; assay type: functional
Macrophage [15] = assay: Antiinflammatory activity in Escherichia coli O6:K2:H1-induced human M2 macrophage assessed as change in 15-HEPE level at 10 uM preincubated for 10 mins followed by Escherichia coli O6:K2:H1-stimulation and measured after 180 mins by UPLC-MS/MS analysis relative to control; assay type: functional
Macrophage [16] = assay: Antiinflammatory activity in Escherichia coli O6:K2:H1-induced human M2 macrophage assessed as change in 14-HDHA level at 10 uM preincubated for 10 mins followed by Escherichia coli O6:K2:H1-stimulation and measured after 180 mins by UPLC-MS/MS analysis relative to control; assay type: functional
Macrophage [17] = assay: Antiinflammatory activity in Escherichia coli O6:K2:H1-induced human M2 macrophage assessed as change in 7-HDHA level at 10 uM preincubated for 10 mins followed by Escherichia coli O6:K2:H1-stimulation and measured after 180 mins by UPLC-MS/MS analysis relative to control; assay type: functional
Macrophage [18] = assay: Antiinflammatory activity in Escherichia coli O6:K2:H1-induced human M2 macrophage assessed as change in 18-HEPE level at 10 uM preincubated for 10 mins followed by Escherichia coli O6:K2:H1-stimulation and measured after 180 mins by UPLC-MS/MS analysis relative to control; assay type: functional
Macrophage [19] = assay: Antiinflammatory activity in Escherichia coli O6:K2:H1-induced human M2 macrophage assessed as change in 5-HETE level at 10 uM preincubated for 10 mins followed by Escherichia coli O6:K2:H1-stimulation and measured after 180 mins by UPLC-MS/MS analysis relative to control; assay type: functional
Macrophage [20] = assay: Antiinflammatory activity in Escherichia coli O6:K2:H1-induced human M2 macrophage assessed as change in 5-HEPE level at 10 uM preincubated for 10 mins followed by Escherichia coli O6:K2:H1-stimulation and measured after 180 mins by UPLC-MS/MS analysis relative to control; assay type: functional

Question: Which results are given for `O=C(Cc1ccc(Oc2nc3ccccc3s2)cc1F)NCCc1ccc(F)cc1`?
Answer: IC50 [1]: 300 nM; Activity (Macrophage [2]): 102%; Activity (Macrophage [3]): 110%; Activity (Macrophage [4]): 152%; Activity (Macrophage [5]): 134%; Activity (Macrophage [6]): 132%; Activity (Macrophage [7]): 151%; Activity (Macrophage [8]): 114%; Activity (Macrophage [9]): 82%; Activity (Macrophage [10]): 28%; Activity (Macrophage [11]): 11%; Activity (Macrophage [12]): 81%; Activity (Macrophage [13]): 63%; Activity (Macrophage [14]): 83%; Activity (Macrophage [15]): 120%; Activity (Macrophage [16]): 106%; Activity (Macrophage [17]): 77%; Activity (Macrophage [18]): 96%; Activity (Macrophage [19]): 44%; Activity (Macrophage [20]): 97%
